Test results published in PubChem BioAssay AID2060362 (Molecular Pharmacology Branch, DTP, NCI, 2025).
“And” between values parts separate entries of the source, which are not always exact repeats. Equal entries are not always repeated. Values belong to the molecule of their own block, whether it stands above or below them.

Tested on: 128128-338-R-J1-PDC spheroids, viability % test/control
Assay: Anticancer human tumor 128128-338-R-J1-PDC patient-derived melanoma cell line growth inhibition [TAK]
Conditions: spheroids with HUVEC and MSC; for viability, T/C: stronger effect = lower value
Description: Combinatorial screen of targeted agents with TAK-243 and ipatasertib in multi-cell type tumor spheroids
A high-throughput screen of multi-cell type tumor spheroids was designed to identify active combinations of targeted small molecules and TAK-243 or ipatasertib. Complex spheroids include a stromal component modeled by human endothelial cells (HUVEC) and fibroblasts modeled by human mesenchymal stem cells (MSCs). The concentration ranges selected for each drug and investigational agent were based upon clinically achievable concentrations if the clinical Cmax of the agent was known.
Compounds. The drugs and investigational agents: TAK-243 (785004), ipatasertib (767898), everolimus (733504), selumetinib (741078), bortezomib (756655), trametinib (758246), ixazomib (758254), vemurafenib (761431), dabrafenib (764134), sapanisertib (764658), alpelisib (765974), and copanlisib (816437), were obtained from the National Cancer Institute (NCI) Developmental Therapeutics Program Chemical Repository. The FDA-approved anticancer drug set is available from the NCI Developmental Therapeutics Program. […] The stock solutions were prepared in dimethyl sulfoxide (DMSO, Sigma-Aldrich, St. Louis, MO, cat. D2650) at 800-fold the tested concentration and stored at -70 degrees C prior to their use. All drugs and investigational agents were tested over a range starting from a high concentration at or near the clinical Cmax and decreasing in half-log increments. If the clinical Cmax for an agent had not been determined, the highest concentration tested was 10 microM.
NCI60 Cell Culture. NCI60 cell lines were obtained from the NCI Developmental Therapeutics Program Tumor Repository. For each lot of cells, the Repository performed Applied Biosystems AmpFLSTR Identifiler testing with PCR amplification to confirm consistency with the published Identifier STR profile for each cell line. Cells were kept in continuous culture for no more than 20 passages. The optimal seeding densities for each of the cell lines at each time point assessed were determined prior to performing the concentration response studies. Briefly, the NCI60 human tumor lines were grown as monolayers in RPMI 1640 medium supplemented with 10% FBS and 2 mmol/L L-glutamine.
An additional 2 lines were from the NCI60 cell line panel including melanomas, MALME-3M and SK-MEL-2. Pooled donor human umbilical vein endothelial cells (HUVEC, Lonza, cat. CC-2519) and human mesenchymal stem cells (hMSC, Lonza, cat. PT-2501) were purchased from Lonza (Walkersville, MD).
PDMR cell lines were grown in complete medium (DC medium): Dulbecco's modified Eagle's medium (DMEM)/F12 supplemented with 5% fetal bovine serum (FBS), 2 mM L-glutamine, 100 U/mL penicillin and 100 µg/ml streptomycin, 0.4 µg/ml hydrocortisone, 10 ng/ml epidermal growth factor (EGF) recombinant human protein, 24 µg/mL adenine, and 0.1 mg/mL primocin. During culture from frozen stock vials, PDMR cells were cultured in the same medium containing 10 µM Y-27632 (see Table 3). The PDCs were cultured in complete DMEM/F12 media without 10 microM Y-27632 dihydrochloride for at least two passages prior to the screen. The pooled donor HUVEC and hMSC were cultured in endothelial cell growth medium 2 (PromoCell, Heidelberg, Germany, cat. C-22011) and mesenchymal stem cell growth medium 2 (PromoCell, cat. C-28009), respectively. For all experiments, HUVEC and hMSC were used at passages </=5.
For the pre-screen, cell seeding densities were determined from a titration spanning the range from 5,000 to 313 cells per well. The mct-spheroids including 60% malignant cells, 25% HUVEC and 15% MSC dispensed as a mixture into U-bottom Ultra-Low Attachment 384-well plates (Corning, NY)
High-throughput Drug Combination Screening.
Prior to their inoculation into 384-well plates, malignant cells, HUVEC, and hMSC were removed from T flasks using TrypLE express (Thermo Fisher Scientific, cat. 12605036) and harvested by centrifugation for 5 min at 233 x g. […]

[1] = curve of first compound, second compound 0.3 µM
[2] = curve of first compound, second compound 0.949 µM
[3] = curve of first compound, second compound 3 µM
[4] = curve of first compound, second compound 9.49 µM
[5] = curve of first compound, second compound 30 µM
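Also: spheroids exposed to compounds for 7 days.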
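For viability, T/C in this document: 100% = DMSO vehicle wells.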

IC50 (curve of compound): 173 nM and 153 nM
Structure (SMILES): COc1c(OCCCN2CCOCC2)ccc2c3n(c(=NC(=O)c4cnc(N)nc4)nc12)CCN3
viability, T/C (compound 0.00316 µM): 109% and 105%
viability, T/C (compound 0.01 µM): 99.4% and 96.6%
viability, T/C (compound 0.0316 µM): 99.3% and 84.1%
viability, T/C (compound 0.1 µM): 75.9% and 72%
viability, T/C (compound 0.316 µM): 21.6% and 15.2%
viability, T/C (compound 1 µM): 8.68% and 5.59%

Structure (SMILES): CC(C)CC(NC(=O)C(Cc1ccccc1)NC(=O)c1cnccn1)B(O)O (configuration not stated) + CC(C)NCC(C(=O)N1CCN(c2ncnc3c2C(C)CC3O)CC1)c1ccc(Cl)cc1
IC50 [1]: 1.8 nM
IC50 [2]: 1.82 nM
IC50 [3]: 1.64 nM
IC50 [4]: 1.22 nM
IC50 [5]: < 0.0316 nM
viability, T/C (second compound 0.3 µM, first compound 31.6 pM): 102%
viability, T/C (second compound 0.3 µM, first compound 0.0001 µM): 102%
viability, T/C (second compound 0.3 µM, first compound 0.000316 µM): 96.1%
viability, T/C (second compound 0.3 µM, first compound 0.001 µM): 97.3%
viability, T/C (second compound 0.3 µM, first compound 0.00316 µM): 4.43%
viability, T/C (second compound 0.3 µM, first compound 0.01 µM): 0.08%
viability, T/C (second compound 0.949 µM, first compound 31.6 pM): 102%
viability, T/C (second compound 0.949 µM, first compound 0.0001 µM): 108%
viability, T/C (second compound 0.949 µM, first compound 0.000316 µM): 109%
viability, T/C (second compound 0.949 µM, first compound 0.001 µM): 101%
viability, T/C (second compound 0.949 µM, first compound 0.00316 µM): 2.86%
viability, T/C (second compound 0.949 µM, first compound 0.01 µM): 0.1%
viability, T/C (second compound 3 µM, first compound 31.6 pM): 84%
viability, T/C (second compound 3 µM, first compound 0.0001 µM): 87.6%
viability, T/C (second compound 3 µM, first compound 0.000316 µM): 90.9%
viability, T/C (second compound 3 µM, first compound 0.001 µM): 83.1%
viability, T/C (second compound 3 µM, first compound 0.00316 µM): 6.23%
viability, T/C (second compound 3 µM, first compound 0.01 µM): 0.05%
viability, T/C (second compound 9.49 µM, first compound 31.6 pM): 66.8%
viability, T/C (second compound 9.49 µM, first compound 0.0001 µM): 71%
viability, T/C (second compound 9.49 µM, first compound 0.000316 µM): 72.5%
viability, T/C (second compound 9.49 µM, first compound 0.001 µM): 60%
viability, T/C (second compound 9.49 µM, first compound 0.00316 µM): 1.26%
viability, T/C (second compound 9.49 µM, first compound 0.01 µM): 0.08%
viability, T/C (second compound 30 µM, first compound 31.6 pM): 21.8%
viability, T/C (second compound 30 µM, first compound 0.0001 µM): 21.8%
viability, T/C (second compound 30 µM, first compound 0.000316 µM): 23.7%
viability, T/C (second compound 30 µM, first compound 0.001 µM): 22%
viability, T/C (second compound 30 µM, first compound 0.00316 µM): 0.38%
viability, T/C (second compound 30 µM, first compound 0.01 µM): 0.13%

Structure (SMILES): Cn1cnc2c(F)c(Nc3ccc(Br)cc3Cl)c(C(=O)NOCCO)cc21 + CC(C)NCC(C(=O)N1CCN(c2ncnc3c2C(C)CC3O)CC1)c1ccc(Cl)cc1
IC50 [1]: 91.3 nM
IC50 [2]: 77.9 nM
IC50 [3]: 54.8 nM
IC50 [4]: 15.1 nM
IC50 [5]: < 9.49 nM
viability, T/C (second compound 0.3 µM, first compound 0.00949 µM): 92.9%
viability, T/C (second compound 0.3 µM, first compound 0.03 µM): 83.4%
viability, T/C (second compound 0.3 µM, first compound 0.0949 µM): 48.7%
viability, T/C (second compound 0.3 µM, first compound 0.3 µM): 13.6%
viability, T/C (second compound 0.3 µM, first compound 0.949 µM): 1.29%
viability, T/C (second compound 0.3 µM, first compound 3 µM): 1.54%
viability, T/C (second compound 0.949 µM, first compound 0.00949 µM): 85.7%
viability, T/C (second compound 0.949 µM, first compound 0.03 µM): 76.6%
viability, T/C (second compound 0.949 µM, first compound 0.0949 µM): 45%
viability, T/C (second compound 0.949 µM, first compound 0.3 µM): 3.97%
viability, T/C (second compound 0.949 µM, first compound 0.949 µM): 0.63%
viability, T/C (second compound 0.949 µM, first compound 3 µM): 0.7%
viability, T/C (second compound 3 µM, first compound 0.00949 µM): 77%
viability, T/C (second compound 3 µM, first compound 0.03 µM): 76.2%
viability, T/C (second compound 3 µM, first compound 0.0949 µM): 26.3%
viability, T/C (second compound 3 µM, first compound 0.3 µM): 1.91%
viability, T/C (second compound 3 µM, first compound 0.949 µM): 0.35%
viability, T/C (second compound 3 µM, first compound 3 µM): 0.16%
viability, T/C (second compound 9.49 µM, first compound 0.00949 µM): 63%
viability, T/C (second compound 9.49 µM, first compound 0.03 µM): 30.6%
viability, T/C (second compound 9.49 µM, first compound 0.0949 µM): 10.7%
viability, T/C (second compound 9.49 µM, first compound 0.3 µM): 0.42%
viability, T/C (second compound 9.49 µM, first compound 0.949 µM): 0.35%
viability, T/C (second compound 9.49 µM, first compound 3 µM): 0.17%
viability, T/C (second compound 30 µM, first compound 0.00949 µM): 16.7%
viability, T/C (second compound 30 µM, first compound 0.03 µM): 4.78%
viability, T/C (second compound 30 µM, first compound 0.0949 µM): 0.34%
viability, T/C (second compound 30 µM, first compound 0.3 µM): 0.25%
viability, T/C (second compound 30 µM, first compound 0.949 µM): 0.15%
viability, T/C (second compound 30 µM, first compound 3 µM): 0.13%
